The results in this text go back to the supplement of paper PMC10307832.

What all share (test): relative viability (nuclei count vs DMSO), 5 days (fraction); higher = more cells survive
Compound in assay [1]: CN[C@@H]1C[C@H]2O[C@@](C)([C@@H]1OC)n1c3ccccc3c3c4c(c5c6ccccc6n2c5c31)C(=O)NC4 [Staurosporine] + CS(=O)(=O)N1CCN(Cc2cc3nc(-c4cccc5[nH]ncc45)nc(N4CCOCC4)c3s2)CC1 [Pictilisib] (partner 1 µM)
In short, it runs like this: (§1)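 For relative viability, nuclei counts in treated wells were divided by those in vehicle wells. Lung cancer cell lines had been pin-tool dosed in 1536-well plates the day after seeding and cultured for 5 days, then fixed and stained in one step (final 0.05% Triton X-100, 1% formaldehyde, 1 ug/ml Hoechst) and imaged at 4×. Doses were one drug alone or a fixed anchor-drug dose plus five library-drug doses (not always all listed) in √10 steps, and values are duplicate-plate medians.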

Compound in the assay “Sulindac + OSI-027”: CC1=C(CC(=O)O)c2cc(F)ccc2/C1=C\c1ccc([S+](C)[O-])cc1 [Sulindac] + COc1cccc2cc(-c3nc([C@H]4CC[C@H](C(=O)O)CC4)n4ncnc(N)c34)[nH]c12 [OSI-027] (partner 0.5 µM)
The procedure, abridged: as §1

Compound in the assay “Sulindac + Pemetrexed”: CC1=C(CC(=O)O)c2cc(F)ccc2/C1=C\c1ccc([S+](C)[O-])cc1 [Sulindac] + Nc1nc2[nH]cc(CCc3ccc(C(=O)N[C@@H](CCC(=O)O)C(=O)O)cc3)c2c(=O)[nH]1 [Pemetrexed] (partner 0.2 µM)
In short, it runs like this: as §1

Compound in the assay “Sulindac + Vorinostat”: CC1=C(CC(=O)O)c2cc(F)ccc2/C1=C\c1ccc([S+](C)[O-])cc1 [Sulindac] + O=C(CCCCCCC(=O)Nc1ccccc1)NO [Vorinostat] (partner 1 µM)
In short, it runs like this: as §1

With NCI-H2085, the relative viability in assay [1] (first compound 0.005 µM) is 0.369; in assay [1] (first compound 0.01581 µM), 0.261; in assay [1] (first compound 0.05 µM), 0.282; in assay [1] (first compound 0.1581 µM) it was 0.351; in assay [1] (first compound 0.5 µM) it was 0.226; with Sulindac + OSI-027 (first compound 0.08 µM), 0.8. The relative viability with Sulindac + OSI-027 (first compound 0.253 µM) amounted to 0.822; with Sulindac + OSI-027 (first compound 0.8 µM), 0.674; with Sulindac + OSI-027 (first compound 2.53 µM), 0.831; with Sulindac + OSI-027 (first compound 8 µM), 0.755; with Sulindac + Pemetrexed (first compound 0.08 µM), 0.921; with Sulindac + Pemetrexed (first compound 0.253 µM) it was 0.903. For the same cell line, the relative viability with Sulindac + Pemetrexed (first compound 0.8 µM) was found to be 0.766; in the assay with Sulindac + Pemetrexed (first compound 2.53 µM) it was 0.898; with Sulindac + Pemetrexed (first compound 8 µM) it was 0.897; with Sulindac + Vorinostat (first compound 0.08 µM), 0.728; with Sulindac + Vorinostat (first compound 0.253 µM) it was 0.814; with Sulindac + Vorinostat (first compound 0.8 µM), 0.77. Further, the figures for the relative viability with Sulindac + Vorinostat (first compound 2.53 µM) and with Sulindac + Vorinostat (first compound 8 µM) were 0.652 and 0.818, respectively.

In the case of NCI-H2087, the relative viability in assay [1] (first compound 0.005 µM) was 0.833; in assay [1] (first compound 0.01581 µM), 0.435; in assay [1] (first compound 0.05 µM), 0.313; in assay [1] (first compound 0.1581 µM), 0.165; in assay [1] (first compound 0.5 µM), 0.138; with Sulindac + OSI-027 (first compound 0.08 µM), 0.67. Also, the relative viability with Sulindac + OSI-027 (first compound 0.253 µM) amounted to 0.595; with Sulindac + OSI-027 (first compound 2.53 µM), 0.46; in the assay with Sulindac + OSI-027 (first compound 8 µM) it was 0.567; with Sulindac + Pemetrexed (first compound 0.08 µM), 0.748; with Sulindac + Pemetrexed (first compound 0.253 µM), 0.666; with Sulindac + Pemetrexed (first compound 0.8 µM) it was 0.741. Moreover, the relative viability with Sulindac + Pemetrexed (first compound 2.53 µM) turned out to be 0.658; with Sulindac + Pemetrexed (first compound 8 µM), 0.685; in the assay with Sulindac + Vorinostat (first compound 0.08 µM), 1.02; in the assay with Sulindac + Vorinostat (first compound 0.253 µM), 0.622; with Sulindac + Vorinostat (first compound 0.8 µM), 0.561; with Sulindac + Vorinostat (first compound 2.53 µM), 0.662. Also, the relative viability in the assay with Sulindac + Vorinostat (first compound 8 µM) turned out to be 0.722.

For the cell line NCI-H2126, the relative viability in assay [1] (first compound 0.005 µM) worked out at 0.496; in assay [1] (first compound 0.01581 µM), 0.309; in assay [1] (first compound 0.05 µM), 0.342; in assay [1] (first compound 0.1581 µM), 0.278; in assay [1] (first compound 0.5 µM), 0.286; in the assay with Sulindac + OSI-027 (first compound 0.08 µM), 0.578. Further, the relative viability with Sulindac + OSI-027 (first compound 0.253 µM) is 0.698; in the assay with Sulindac + OSI-027 (first compound 0.8 µM), 0.674; with Sulindac + OSI-027 (first compound 2.53 µM), 0.741; with Sulindac + OSI-027 (first compound 8 µM), 0.771; with Sulindac + Pemetrexed (first compound 0.08 µM) it was 0.774; with Sulindac + Pemetrexed (first compound 0.253 µM) it was 0.68. Further, the relative viability stood at 0.658 with Sulindac + Pemetrexed (first compound 0.8 µM); 0.692 with Sulindac + Pemetrexed (first compound 2.53 µM); 0.699 with Sulindac + Pemetrexed (first compound 8 µM); 0.902 with Sulindac + Vorinostat (first compound 0.08 µM); 0.79 with Sulindac + Vorinostat (first compound 0.253 µM); 0.721 with Sulindac + Vorinostat (first compound 0.8 µM). The relative viability came to 0.715 in the assay with Sulindac + Vorinostat (first compound 2.53 µM) and 0.839 with Sulindac + Vorinostat (first compound 8 µM).

As for NCI-H2170, the relative viability stood at 0.302 in assay [1] (first compound 0.005 µM); 0.165 in assay [1] (first compound 0.01581 µM); 0.232 in assay [1] (first compound 0.05 µM); 0.151 in assay [1] (first compound 0.1581 µM); 0.113 in assay [1] (first compound 0.5 µM); 0.694 in the assay with Sulindac + OSI-027 (first compound 0.08 µM). Further, the relative viability in the assay with Sulindac + OSI-027 (first compound 0.253 µM) turned out to be 0.72; with Sulindac + OSI-027 (first compound 0.8 µM) it was 0.684; with Sulindac + OSI-027 (first compound 2.53 µM), 0.739; in the assay with Sulindac + OSI-027 (first compound 8 µM), 0.756; in the assay with Sulindac + Pemetrexed (first compound 0.08 µM), 0.282; in the assay with Sulindac + Pemetrexed (first compound 0.253 µM), 0.252. Moreover, the relative viability in the assay with Sulindac + Pemetrexed (first compound 0.8 µM) is 0.371; with Sulindac + Pemetrexed (first compound 2.53 µM), 0.267; with Sulindac + Pemetrexed (first compound 8 µM) it was 0.278; with Sulindac + Vorinostat (first compound 0.08 µM), 0.937; with Sulindac + Vorinostat (first compound 0.253 µM) it was 0.741; in the assay with Sulindac + Vorinostat (first compound 0.8 µM), 0.69. Also, the relative viability in the assay with Sulindac + Vorinostat (first compound 2.53 µM) is 0.833; with Sulindac + Vorinostat (first compound 8 µM), 0.924.

Turning to NCI-H2228, the relative viability stood at 0.187 in assay [1] (first compound 0.005 µM); 0.139 in assay [1] (first compound 0.01581 µM); 0.325 in assay [1] (first compound 0.05 µM); 0.116 in assay [1] (first compound 0.1581 µM); 0.0619 in assay [1] (first compound 0.5 µM); 0.794 with Sulindac + OSI-027 (first compound 0.08 µM). Also, the relative viability came out at 0.687 with Sulindac + OSI-027 (first compound 0.253 µM); 0.533 with Sulindac + OSI-027 (first compound 0.8 µM); 0.502 with Sulindac + OSI-027 (first compound 2.53 µM); 0.56 with Sulindac + OSI-027 (first compound 8 µM); 0.376 with Sulindac + Pemetrexed (first compound 0.08 µM); 0.445 with Sulindac + Pemetrexed (first compound 0.253 µM). Besides, the relative viability with Sulindac + Pemetrexed (first compound 0.8 µM) is 0.289; with Sulindac + Pemetrexed (first compound 2.53 µM) it was 0.371; with Sulindac + Pemetrexed (first compound 8 µM) it was 0.319; with Sulindac + Vorinostat (first compound 0.08 µM), 0.588; in the assay with Sulindac + Vorinostat (first compound 0.253 µM), 0.831; in the assay with Sulindac + Vorinostat (first compound 0.8 µM), 0.497. In addition, the relative viability turned out to be 0.981 with Sulindac + Vorinostat (first compound 2.53 µM) and 0.865 in the assay with Sulindac + Vorinostat (first compound 8 µM).

As for NCI-H2347, the relative viability turned out to be 0.836 in assay [1] (first compound 0.005 µM); 0.217 in assay [1] (first compound 0.01581 µM); 0.487 in assay [1] (first compound 0.05 µM); 0.333 in assay [1] (first compound 0.1581 µM); 0.357 in assay [1] (first compound 0.5 µM); 0.398 in the assay with Sulindac + OSI-027 (first compound 0.08 µM). Moreover, the relative viability with Sulindac + OSI-027 (first compound 0.253 µM) is 0.363; in the assay with Sulindac + OSI-027 (first compound 2.53 µM), 0.301; with Sulindac + OSI-027 (first compound 8 µM) it was 0.511; with Sulindac + Pemetrexed (first compound 0.08 µM), 0.429; with Sulindac + Pemetrexed (first compound 0.253 µM), 0.394; in the assay with Sulindac + Pemetrexed (first compound 2.53 µM) it was 0.461. Also, the relative viability with Sulindac + Pemetrexed (first compound 8 µM) was determined as 0.414; with Sulindac + Vorinostat (first compound 0.08 µM), 0.668; with Sulindac + Vorinostat (first compound 0.253 µM), 0.702; with Sulindac + Vorinostat (first compound 0.8 µM), 0.46; in the assay with Sulindac + Vorinostat (first compound 2.53 µM), 0.713; with Sulindac + Vorinostat (first compound 8 µM), 0.593.

Take NCI-H2405: the relative viability turned out to be 0.284 in assay [1] (first compound 0.005 µM); 0.135 in assay [1] (first compound 0.01581 µM); 0.103 in assay [1] (first compound 0.05 µM); 0.0688 in assay [1] (first compound 0.1581 µM); 0.064 in assay [1] (first compound 0.5 µM); 0.664 with Sulindac + OSI-027 (first compound 0.08 µM). Moreover, the relative viability with Sulindac + OSI-027 (first compound 0.253 µM) came to 0.711; with Sulindac + OSI-027 (first compound 0.8 µM), 0.736; with Sulindac + OSI-027 (first compound 2.53 µM) it was 0.602; with Sulindac + OSI-027 (first compound 8 µM) it was 0.685; in the assay with Sulindac + Pemetrexed (first compound 0.08 µM), 1.14; with Sulindac + Pemetrexed (first compound 0.253 µM), 1.17. The relative viability came to 0.971 in the assay with Sulindac + Pemetrexed (first compound 0.8 µM); 0.926 in the assay with Sulindac + Pemetrexed (first compound 2.53 µM); 1.15 with Sulindac + Pemetrexed (first compound 8 µM); 1.08 with Sulindac + Vorinostat (first compound 0.08 µM); 1.04 in the assay with Sulindac + Vorinostat (first compound 0.253 µM); 0.923 with Sulindac + Vorinostat (first compound 0.8 µM). Besides, the relative viability with Sulindac + Vorinostat (first compound 2.53 µM) came out at 0.971; in the assay with Sulindac + Vorinostat (first compound 8 µM), 1.28.
